Experimental findings from patent US11878970B2, “Allosteric chromenone inhibitors of phosphoinositide 3-kinase (PI3K) for the treatment of disease” (Petra Pharma Corporation, priority 2021, dated 2024) are described below.

Assay [1] has as its target T1, PI3K-α (PIK3CA) H1047R mutant, p110α/p85α complex (Homo sapiens, UniProt P42336, H1047R).
T1 construct: Recombinant, catalytically active human full length PIK3KA Wild-type and H1047R mutant; 6×His (N); purchased EMD Millipore Sigma 14-792M
As to the kind of experiment: PI3K-alpha kinase (PIK3CA) biochemical activity, ADP-Glo, H1047R mutant. The note with it: Soy PI lipid substrate. From the text: (§1) PI3K-Alpha Kinase (PIK3CA) Activity, Wild-Type and H1047R Mutant and Determining IC50 Values for Inhibitors
(§2) Recombinant, catalytically active human full length PIK3KA Wild-type and H1047R mutant were purchased as 1:1 complex of N-terminal 6×his tagged p110α (catalytic) and untagged p85α (regulatory subunit) from EMD Millipore Sigma (cat. no. 14-602M and 14-792M, respectively). PIP2diC8 (Avanti Polar Lipids Inc., cat. no. 850185) or Soy PI (Avanti Polar Lipids Inc., cat. No. 840044P) was used as lipid substrate. PIP2diC8 or PI lyophilized powder was dissolved in milliQ water to a concentration of 1 mM just before use. 10 mM stock compounds in DMSO were serially diluted 1:3 to generate a 10-point curve and plated using an acoustic liquid handler system (Echo 550 series instrument, Labcyte). A 10× intermediate compound plate (200 uM starting compound concentration and 10% DMSO) was prepared before starting the reaction. A typical reaction mixture (50 uL) comprised 40 mM HEPES buffer, pH 7.4, 25 mM MgCl2, 0.01% v/v triton-X-100, 1% v/v DMSO, 20 mM NaCl, 1-5 nM WT or H1047R PI3K protein, 20 uM ATP, and 50 uM PIP2diC8 or Soy PI. 1% DMSO buffer alone without test compound was employed as MAX control (full activity in the absence of any inhibitor), and no enzyme control was used to determine the level of background Adenosine 5′-diphosphate (ADP) (MIN control). First, Wild-type (WT) and H1047R mutant protein in kinase buffer with all components except ATP were incubated with or without compound at 27° C. for 1 h. After the pre-incubation, the reaction was initiated by the addition of 20 uL of 50 uM ATP (20 uM final concentration). The reaction was allowed to proceed until about 10% conversion of ATP (2 uM ADP) at 27° C. After that time, 5 uL of reaction was mixed with 5 uL of ADP-Kinase Glo Reagent (ADP-Glo Kinase assay kit, Promega cat. no. V9102) supplemented with MgCl2 10 mM to stop the reaction and deplete the remaining ATP for 40 min at room temperature. Then, 10 uL of Kinase Detection Reagent (ADP-Glo Kinase assay kit, Promega cat. no. V9102) was added to simultaneously convert ADP to ATP and allow the newly synthesized ATP to be measured using a luciferase/luciferin reaction. After 30 min at room temperature the light generated was measured using a luminometer (EnVision plate reader, Perkin Elmer). Process data through Genedata-Screener tool. Relative IC50 values are determined using luminescence units by calculating percent inhibition with respect to on-plate “MIN” and “MAX” controls. Data was analyzed using a 4-parameter nonlinear logistic equation (four-parameter logistic concentration-response curve): Y=bot+[(top−bot)/1+(x/IC50)slope] where Y=% inhibition, X=concentration yielding y % inhibition, Bottom=minimum value of y attained by curve, Top=maximum value of y attained by curve and Slope=steepness of curve at IC50. % Inh=[(median Max−x/median Max−median Min)]·100 IC50: concentration of compound that reduces a given response (ligand binding, enzyme response) by 50%. IC50 relative: concentration giving half the compound's maximum response.

The target in assay [2] is T2, PI3K-α (PIK3CA) wild-type (WT), p110α/p85α complex (Homo sapiens, UniProt P42336).
T2 construct: Recombinant, catalytically active human full length PIK3KA Wild-type and H1047R mutant; 6×His (N); purchased EMD Millipore Sigma 14-602M
As to the kind of experiment: PI3K-alpha kinase (PIK3CA) biochemical activity, ADP-Glo, wild-type. The note with it: Soy PI lipid substrate.
Text: as §1, §2

T1 sequence (P42336 whole entry H1047R): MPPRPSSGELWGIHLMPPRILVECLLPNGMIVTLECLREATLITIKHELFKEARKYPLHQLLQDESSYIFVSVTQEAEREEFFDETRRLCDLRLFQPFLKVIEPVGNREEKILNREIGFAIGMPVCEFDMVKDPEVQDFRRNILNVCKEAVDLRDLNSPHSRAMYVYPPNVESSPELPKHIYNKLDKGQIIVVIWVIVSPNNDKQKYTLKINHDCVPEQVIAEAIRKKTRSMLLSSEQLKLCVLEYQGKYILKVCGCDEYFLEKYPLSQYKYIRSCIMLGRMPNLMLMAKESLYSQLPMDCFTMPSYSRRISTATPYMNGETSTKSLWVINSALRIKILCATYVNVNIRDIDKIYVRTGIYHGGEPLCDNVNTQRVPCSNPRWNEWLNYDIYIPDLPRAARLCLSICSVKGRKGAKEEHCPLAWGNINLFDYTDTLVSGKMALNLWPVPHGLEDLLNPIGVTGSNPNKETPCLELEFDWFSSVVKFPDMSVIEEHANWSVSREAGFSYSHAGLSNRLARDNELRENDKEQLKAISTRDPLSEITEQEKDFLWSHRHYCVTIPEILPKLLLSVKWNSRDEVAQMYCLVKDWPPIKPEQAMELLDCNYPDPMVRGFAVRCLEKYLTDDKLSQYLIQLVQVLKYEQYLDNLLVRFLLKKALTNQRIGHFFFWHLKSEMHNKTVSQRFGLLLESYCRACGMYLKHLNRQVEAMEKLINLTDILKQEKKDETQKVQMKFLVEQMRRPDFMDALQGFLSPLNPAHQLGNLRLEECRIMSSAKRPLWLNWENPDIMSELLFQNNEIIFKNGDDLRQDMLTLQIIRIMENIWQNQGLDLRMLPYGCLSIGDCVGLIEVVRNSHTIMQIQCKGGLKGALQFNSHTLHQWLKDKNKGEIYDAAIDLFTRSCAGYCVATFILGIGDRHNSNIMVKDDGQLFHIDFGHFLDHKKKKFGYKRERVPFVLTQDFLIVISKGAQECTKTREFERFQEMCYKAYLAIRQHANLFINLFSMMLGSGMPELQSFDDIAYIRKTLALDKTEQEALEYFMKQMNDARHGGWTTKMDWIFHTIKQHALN
T1 sequence (P27986 whole entry partner): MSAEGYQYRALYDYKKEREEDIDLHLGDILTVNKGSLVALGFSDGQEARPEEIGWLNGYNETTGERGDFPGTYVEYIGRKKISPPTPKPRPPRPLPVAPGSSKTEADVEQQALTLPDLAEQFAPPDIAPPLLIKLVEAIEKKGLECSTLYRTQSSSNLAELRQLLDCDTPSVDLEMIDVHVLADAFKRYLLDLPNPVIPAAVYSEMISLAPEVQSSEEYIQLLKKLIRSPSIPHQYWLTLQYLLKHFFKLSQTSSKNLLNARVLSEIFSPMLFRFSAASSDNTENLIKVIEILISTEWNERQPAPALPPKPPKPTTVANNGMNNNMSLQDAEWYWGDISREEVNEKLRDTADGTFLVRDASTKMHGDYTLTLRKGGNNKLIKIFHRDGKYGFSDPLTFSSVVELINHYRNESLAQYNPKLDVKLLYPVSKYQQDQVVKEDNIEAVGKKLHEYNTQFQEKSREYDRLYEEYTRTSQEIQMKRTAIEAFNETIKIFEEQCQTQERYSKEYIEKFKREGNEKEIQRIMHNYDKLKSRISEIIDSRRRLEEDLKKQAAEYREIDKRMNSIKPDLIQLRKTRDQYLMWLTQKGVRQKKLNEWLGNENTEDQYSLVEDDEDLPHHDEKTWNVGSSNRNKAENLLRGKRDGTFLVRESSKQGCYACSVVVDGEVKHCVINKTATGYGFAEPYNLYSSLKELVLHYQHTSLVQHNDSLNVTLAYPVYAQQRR

Take `Cc1cc(C(C)Nc2ccccc2C(=O)O)c2oc(-c3cccc4c3OCO4)cc(=O)c2c1` (single isomer, unassigned) [Example 45, 2-[1-[2-(1,3-Benzodioxol-4-yl)-6-methyl-4-oxo-chromen-8-yl]ethylamino]benzoic acid]: the IC50 in assay [1] and in assay [2] was less than 500 nM in each case.

Regarding `Cc1cc(C(C)Nc2ccccc2C(=O)O)c2oc(-c3ccc4nccn4n3)cc(=O)c2c1` (single isomer, unassigned) [Example 36, 2-[1-(2-Imidazo[1,2-b]pyridazin-6-yl-6-methyl-4-oxo-chromen-8-yl)ethylamino]benzoic acid], the values for the IC50 in assay [1] and in assay [2] were less than 500 nM and 1000 to 5000 nM, respectively.

With `Cc1cc(C(C)Nc2ccccc2C(=O)O)c2oc(-c3ccc4c(C)n[nH]c4c3)cc(=O)c2c1` (single isomer, unassigned) [Example 28, 2-[1-[6-Methyl-2-(3-methyl-1H-indazol-6-yl)-4-oxo-chromen-8-yl]ethylamino]benzoic acid], the IC50 in assay [1] was less than 500 nM; in assay [2] it was 1000 to 5000 nM.

In the case of `Cc1cc(C(C)Nc2ccccc2C(=O)O)c2oc(-c3ccc4nc(C(F)(F)F)cn4c3)c(C)c(=O)c2c1` (single isomer, unassigned) [Example 186, 2-[1-[3,6-Dimethyl-4-oxo-2-[2-(trifluoromethyl)imidazo[1,2-a]pyridin-6-yl]chromen-8-yl]ethylamino]benzoic acid], the IC50 in assay [1] was less than 500 nM; in assay [2], 1000 to 5000 nM.

As for `Cc1cc(C(C)Nc2ccc(Cl)nc2C(=O)O)c2oc(-c3ccc4nn(C)cc4c3)cc(=O)c2c1` (single isomer, unassigned) [Example 206, 6-Chloro-3-[1-[6-methyl-2-(2-methylindazol-5-yl)-4-oxo-chromen-8-yl]ethylamino]pyridine-2-carboxylic acid], the IC50 in assay [1] and in assay [2] was less than 500 nM in each case.

Consider `Cc1cc(C(C)Nc2ccccc2C(=O)O)c2oc(-c3ccc4c(C#N)nn(C)c4c3)cc(=O)c2c1` (single isomer, unassigned) [Example 104, 2-[1-[2-(3-Cyano-1-methyl-indazol-6-yl)-6-methyl-4-oxo-chromen-8-yl]ethylamino]benzoic acid], for which the IC50 in assay [1] is less than 500 nM; in assay [2], 1000 to 5000 nM.

Regarding `Cc1cc(C(C)Nc2ccccc2C(=O)O)c2oc(-c3cnc4nn(C)cc4c3)cc(=O)c2c1` (single isomer, unassigned) [Example 42, 2-[1-[6-Methyl-2-(2-methylpyrazolo[3,4-b]pyridin-5-yl)-4-oxo-chromen-8-yl]ethylamino]benzoic acid], the IC50 in assay [1] is less than 500 nM; in assay [2], 1000 to 5000 nM.

Consider `Cc1cc(C(C)Nc2ccccc2C(=O)O)c2oc(-c3nccn4cccc34)cc(=O)c2c1` (single isomer, unassigned) [Example 105, 2-[1-(6-Methyl-4-oxo-2-pyrrolo[1,2-a]pyrazin-1-yl-chromen-8-yl)ethylamino]benzoic acid], for which the IC50 in assay [1] was less than 500 nM; in assay [2], 5000 to 10000 nM.

In the case of `Cc1cc(C(C)Nc2ccccc2C(=O)O)c2oc(-c3ccc4nn(C)cc4c3)c(C(F)(F)F)c(=O)c2c1` (single isomer, unassigned) [Example 208, 2-[1-[6-Methyl-2-(2-methylindazol-5-yl)-4-oxo-3-(trifluoromethyl)chromen-8-yl]ethylamino]benzoic acid], the IC50 in assay [1] and in assay [2] was less than 500 nM in each case.

On to `Cc1cc(C(C)Nc2ccccc2C(=O)O)c2oc(-c3ccc4cc(C)[nH]c4n3)cc(=O)c2c1` (single isomer, unassigned) [Example 20, 2-[1-[6-Methyl-2-(2-methyl-1H-pyrrolo[2,3-b]pyridin-6-yl)-4-oxo-chromen-8-yl]ethylamino]benzoic acid], for which the IC50 in assay [1] is less than 500 nM; in assay [2], 1000 to 5000 nM.

Consider `Cc1cn2cc(-c3oc4c(C(C)Nc5ccccc5C(=O)O)cc(F)cc4c(=O)c3C)ccc2n1` (single isomer, unassigned) [Example 56, 2-[1-[6-Fluoro-3-methyl-2-(2-methylimidazo[1,2-a]pyridin-6-yl)-4-oxo-chromen-8-yl]ethylamino]benzoic acid], for which the IC50 in assay [1] and in assay [2] was more than 10000 nM in each case.

In the case of `CC(Nc1ccc(Cl)nc1C(=O)O)c1cc(C(F)(F)F)cc2c(=O)cc(-c3cc(Cl)c4nn(C)cc4c3)oc12` (stereo not shown) [Example 173, 6-Chloro-3-[1-[2-(7-chloro-2-methyl-indazol-5-yl)-4-oxo-6-(trifluoromethyl)chromen-8-yl]ethylamino]pyridine-2-carboxylic acid], the IC50 in assay [1] was less than 500 nM; in assay [2], more than 10000 nM.

Turning to `CC(Nc1ccc(Cl)nc1C(=O)O)c1cc(C(F)(F)F)cc2c(=O)cc(-c3cc4ccccc4[nH]3)oc12` (single isomer, unassigned) [Example 100, 6-Chloro-3-[1-[2-(1H-indol-2-yl)-4-oxo-6-(trifluoromethyl)chromen-8-yl]ethylamino]pyridine-2-carboxylic acid], the IC50 is less than 500 nM in assay [1] and more than 10000 nM in assay [2].

Consider `Cc1c(-c2cc3ccccc3[nH]2)oc2c(C(C)Nc3ccccc3C(=O)O)cc(F)cc2c1=O` (single isomer, unassigned) [Example 129, 2-[1-[6-Fluoro-2-(1H-indol-2-yl)-3-methyl-4-oxo-chromen-8-yl]ethylamino]benzoic acid], for which the IC50 in assay [1] was less than 500 nM; in assay [2], 500 to 1000 nM.

`Cc1cc(C(C)Nc2cccc(F)c2C(=O)O)c2oc(-c3ccc4nn(C)cc4c3)cc(=O)c2c1` (stereo not shown) [Example 103, 2-Fluoro-6-[1-[6-methyl-2-(2-methylindazol-5-yl)-4-oxo-chromen-8-yl]ethylamino]benzoic acid]: the IC50 in assay [1] is less than 500 nM; in assay [2], 1000 to 5000 nM.

For `Cc1cc(C(C)Nc2ccccc2C(=O)O)c2oc(-c3ccn4c(C)nnc4c3)cc(=O)c2c1` (single isomer, unassigned) [Example 77, 2-[1-[6-Methyl-2-(3-methyl-[1,2,4]triazolo[4,3-a]pyridin-7-yl)-4-oxo-chromen-8-yl]ethylamino]benzoic acid], the IC50 is less than 500 nM in assay [1] and 5000 to 10000 nM in assay [2].

As for `Cc1cc(C(C)Nc2ccccc2C(=O)O)c2oc(-c3cnn4ccccc34)cc(=O)c2c1` (single isomer, unassigned) [Example 29, 2-[1-(6-Methyl-4-oxo-2-pyrazolo[1,5-a]pyridin-3-yl-chromen-8-yl)ethylamino]benzoic acid], the IC50 is less than 500 nM in assay [1] and 5000 to 10000 nM in assay [2].

As to `Cc1cc(C(C)Nc2ccccc2C(=O)O)c2oc(-c3nccc4cn(C)nc34)cc(=O)c2c1` (single isomer, unassigned) [Example 98, 2-[1-[6-Methyl-2-(2-methylpyrazolo[3,4-c]pyridin-7-yl)-4-oxo-chromen-8-yl]ethylamino]benzoic acid], the IC50 in assay [1] and in assay [2] was 5000 to 10000 nM throughout.

Turning to `Cc1cc(C(C)Nc2ccccc2C(=O)O)c2oc(-c3cnc4cn(C)nc4c3)cc(=O)c2c1` (single isomer, unassigned) [Example 44, 2-[1-[6-Methyl-2-(2-methylpyrazolo[4,3-b]pyridin-6-yl)-4-oxo-chromen-8-yl]ethylamino]benzoic acid], the IC50 is 1000 to 5000 nM in assay [1] and 5000 to 10000 nM in assay [2].

`Cc1cc(C(C)Nc2ccccc2C(=O)O)c2oc(-c3ccc4ccnn4c3)cc(=O)c2c1` (single isomer, unassigned) [Example 67, 2-[1-(6-Methyl-4-oxo-2-pyrazolo[1,5-a]pyridin-6-yl-chromen-8-yl)ethylamino]benzoic acid]: the IC50 in assay [1] was less than 500 nM; in assay [2] it was 1000 to 5000 nM.
